Data taken from patent publication US20100256214A1, “EPH RECEPTOR LIGANDS AND METHODS OF USE” (Burnham Institute for Medical Research, priority 2009, published 2010).

Key:
[1] = tested on: PC3 cells; experiment: PC3 cell retraction assay; format: cell-based
Protocol: FIGS. 9A-9G. A. PC3 cells pretreated for 15 min with the indicated concentrations of compound 1 or compound 2 were stimulated with 0.5 μg/mL ephrin-A1 Fc (+) or Fc as a control (−) for 20 min in the continued presence of the compounds. EphA2 immunoprecipitates were probed with anti-phosphotyrosine antibody (PTyr) and reprobed for EphA2. C indicates immunoprecipitations performed with control antibodies. B. Histogram showing the levels of EphA2 phosphorylation normalized to the amount of immunoprecipitated EphA2. Error bars indicate standard error from 3 experiments. Receptor phosphorylation levels were compared with those in the ephrin-stimulated cells by one-way ANOVA and Dunnett's post test. *P<0.05 and *P<0.01. C. PC3 cells stimulated with compound 1 as in (A) were stained with rhodamine-phalloidin to label actin filaments and DAPI to label nuclei. DMSO was used as a control (0 μM). D. Histogram showing the mean area of the cells normalized to the value obtained for the Fc stimulated cells. E. Histogram showing the mean percentage of retracting cells. Cells having rounded shape and area less than 20% of the mean value obtained for the Fc stimulated cells were scored as retracting. Error bars in D and E indicate standard error from 3 experiments. F-H. The same experiments as in (C-E) were performed using compound 2. The areas occupied by the cells and the percentage of cell retraction under different conditions were compared to those in the Fc control condition by one-way ANOVA and Dunnett's post test. *P<0.05 and **P<0.01. Scale bars in (C) and (F)=50 μm.
PC3 Cell Retraction Assay—PC3 cells were plated on glass coverslips and grown in RPMI 1640 medium (Mediatech, Inc, Herndon, Va.) with 10% FBS and Pen/Strep. After 17 hours the cells were starved for 3 hours in 0.5% FBS in DMEM and then incubated for 40 min with the compounds or DMSO, before stimulation for 10 min with 0.5 μg/mL of ephrin-A1 Fc or Fc as a control. The cells were fixed in 4% formaldehyde in PBS, permeabilized in 0.5% Triton X-100 in TBS and stained with rhodamine-conjugated phalloidin (Invitrogen, Carlsbad, Calif.) and DAPI. Cells were photographed under a fluorescence microscope and cell area was measured in a blinded manner using ImageJ software. Cells having rounded shape and area equal or below 20% of the area of Fc control-treated cells were considered as retracting.

[2] = biological target: EphA4 (Mus musculus, UniProt Q03137); experiment: ELISA, EphA4 AP binding to immobilized ephrin Fc fusion proteins; design: made in house; conditioned culture medium used
Chain of EphA4 (Q03137 20-547 limits assumed): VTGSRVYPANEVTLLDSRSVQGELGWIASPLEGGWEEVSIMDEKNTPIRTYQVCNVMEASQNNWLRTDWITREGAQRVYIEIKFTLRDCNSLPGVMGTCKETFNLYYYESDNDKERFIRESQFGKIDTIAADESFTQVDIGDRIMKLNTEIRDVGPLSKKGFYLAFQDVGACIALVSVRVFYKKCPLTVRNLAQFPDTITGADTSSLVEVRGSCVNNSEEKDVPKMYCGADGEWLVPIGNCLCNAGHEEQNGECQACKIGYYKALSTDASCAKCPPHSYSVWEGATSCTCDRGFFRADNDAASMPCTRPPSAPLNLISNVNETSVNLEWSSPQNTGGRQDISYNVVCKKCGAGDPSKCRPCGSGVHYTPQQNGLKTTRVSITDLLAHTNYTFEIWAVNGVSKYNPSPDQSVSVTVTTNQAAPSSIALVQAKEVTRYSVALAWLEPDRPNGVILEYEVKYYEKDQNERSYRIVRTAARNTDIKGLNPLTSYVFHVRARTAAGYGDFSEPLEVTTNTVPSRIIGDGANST
Protocol: (§1) FIGS. 3A and 3B. A. Ephrin-A5 AP binding to immobilized EphA receptor Fc fusion proteins and ephrin-B2 AP binding to immobilized EphB receptor Fc fusion proteins were measured in the presence of the indicated concentrations of compounds 1 and 2. […] Error bars indicate standard error from 3 measurements. B. IC50 values for inhibition of EphA4 AP and EphA2 AP binding to the indicated immobilized ephrins by compounds 1 and 2.
(§2) ELISA Assays and K, Determination—Protein A-coated wells (Pierce Biotecnology, Rockford, Ill.) were used to immobilize ephrin Fc fusion proteins (R&D Systems, Minneapolis, Minn.). Compounds at different concentrations were incubated with EphA4 AP (Cheng and Flanagan, (1994) Cell 79(1), 157-168) or EphA2 AP (Koolpe et al. (2002) J Biol Chem 277(49), 46974-46979) for 3 hours. Alternatively, Eph receptor Fc fusion proteins were immobilized on protein A-coated wells and ephrin-A5 AP (Menzel et al. (2001) Developmental Biology 230(1), 74-88) or ephrin-B2 AP (GeneHunter, Nashville, Tenn.) were added with the compounds. The amount of bound AP-fusion protein was quantified using pNPP as the substrate. Alkaline phosphatase activity from wells with Fc only was subtracted as background. […]

[3] = biological target: EphA2 (Homo sapiens, UniProt P29317); experiment: ELISA, EphA2-ephrin-A5 binding; details: assuming competitive inhibition; read-out: Ki for inhibition of EphA2-ephrin-A5 binding (Cheng-Prusoff)
Chain of EphA2 (P29317 25-534 limits assumed, species assumed): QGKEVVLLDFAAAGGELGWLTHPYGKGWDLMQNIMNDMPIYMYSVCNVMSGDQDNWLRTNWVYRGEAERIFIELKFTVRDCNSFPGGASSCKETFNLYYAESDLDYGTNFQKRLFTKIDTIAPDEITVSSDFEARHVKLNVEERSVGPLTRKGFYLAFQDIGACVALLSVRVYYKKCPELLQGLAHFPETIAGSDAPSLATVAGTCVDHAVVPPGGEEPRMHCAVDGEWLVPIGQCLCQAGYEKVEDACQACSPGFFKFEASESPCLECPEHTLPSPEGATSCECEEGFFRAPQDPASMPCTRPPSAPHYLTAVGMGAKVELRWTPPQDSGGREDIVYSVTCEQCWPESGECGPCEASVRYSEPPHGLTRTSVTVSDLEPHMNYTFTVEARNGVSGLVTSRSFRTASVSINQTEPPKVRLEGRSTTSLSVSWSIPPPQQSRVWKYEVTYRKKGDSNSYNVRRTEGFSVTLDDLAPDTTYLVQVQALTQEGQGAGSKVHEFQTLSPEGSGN
Protocol: as §2, with “substrate.” for “substrate. Alkaline phosphatase activity from wells with Fc only was subtracted as background.”
To calculate the inhibition constant (KO values, the binding of ephrin-A5 AP to EphA4 Fc immobilized on protein A-coated wells was measured in the absence and in the presence of the compounds at different concentrations. Each data set was fitted to the Michaelis-Menten equation: B=Bmax [S]/(KD+[S]), where [S] is the concentration of ephrin AP fusion protein and KD is the dissociation constant observed in the absence or in the presence of the compound, using non linear regression and the program GraphPad (Prism). To evaluate whether the inhibition is competitive, noncompetitive or uncompetitive the KD and Bmax values were determined at different compound concentrations. […]

[4] = tested on: EphA and EphB receptors; experiment: ELISA, ephrin-A5 AP / ephrin-B2 AP binding to immobilized EphA and EphB receptor Fc fusion proteins
Protocol: as §1, §2

| SMILES | cell morphology in the absence of ephrin treatment [1] | decrease in cell spreading caused by ephrin-A1 Fc [1] | increase in the percentage of rounded cells caused by ephrin-A1 Fc [1] | inhibition of binding of different ephrin ligands to EphA4 [2] | Ki [3] [µM] | selectivity of inhibition of ephrin binding among EphA and EphB receptors [4] |
| --- | --- | --- | --- | --- | --- | --- |
| Cc1ccc(C)n1-c1ccc(C(=O)O)c(O)c1 [compound 1, 4-(2,5-dimethyl-pyrrol-1-yl)-2-hydroxy-benzoic acid] | did not affect | blocked | blocked | inhibited binding of most ephrin ligands to EphA4, except for ephrin-A4 and ephrin-B2 | 11 to 14 | efficiently inhibited ephrin binding only to EphA4 and EphA2 |
| Cc1ccc(C)n1-c1ccc(O)c(C(=O)O)c1 [compound 2, 5-(2,5 dimethyl-pyrrol-1-yl)-2-hydroxy-benzoic acid] | did not affect | blocked | blocked | inhibited binding of most ephrin ligands to EphA4, except for ephrin-A4 and ephrin-B2 | 10 to 13 | efficiently inhibited ephrin binding only to EphA4 and EphA2 |
